Assay results as given in PubChem BioAssay (NCI).
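Grown in 96-well plates, cells were treated for 48 hours with each compound at five concentrations. Insufficient inhibition: endpoint recorded as highest concentration tested. GI50 is the concentration that inhibits growth by half. TGI: total growth inhibition.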

How the values were obtained:
Assay in all cases: NCI tumour cell line growth inhibition, 48 h
ACHN renal = system: ACHN renal
EKVX NSCLC = system: EKVX NSCLC
HCC-2998 colon = system: HCC-2998 colon
HOP-62 NSCLC = system: HOP-62 NSCLC
IGROV1 ovarian = system: IGROV1 ovarian
MDA-MB-231 breast = system: MDA-MB-231 breast
MOLT-4 leukemia = system: MOLT-4 leukemia
NCI-H23 lung = system: NCI-H23 lung
RXF 393 renal = system: RXF 393 renal
SK-MEL-2 melanoma = system: SK-MEL-2 melanoma
SK-OV-3 ovarian = system: SK-OV-3 ovarian
U251 CNS = system: U251 CNS
A498 renal = system: A498 renal

Compound	TGI (ACHN renal)	TGI (EKVX NSCLC)	TGI (HCC-2998 colon)	TGI (HOP-62 NSCLC)	TGI (IGROV1 ovarian)	TGI (MDA-MB-231 breast)	TGI (MOLT-4 leukemia)	TGI (NCI-H23 lung)	TGI (RXF 393 renal)	TGI (SK-MEL-2 melanoma)	TGI (SK-OV-3 ovarian)	TGI (U251 CNS)	TGI (A498 renal)	GI50 (IGROV1 ovarian)	GI50 (NCI-H23 lung)	GI50 (U251 CNS)
C=CCOC(=O)C1=C(C)NC2=N[C@H](CCCCCCCCC)C[C@@H]3CCC1N23 (stereo partly drawn)	44.4 µM	53.1 µM	48.4 µM	79 µM	49.5 µM	41.7 µM	> 100 µM	41.8 µM	36 µM	36.5 µM	75.2 µM	40.5 µM	–	–	–	–
Cc1ccc2c(=O)cc(-c3ccc(C)s3)[nH]c2n1	> 69 µM	> 100 µM	9.82 µM	> 100 µM	> 50.4 µM	> 100 µM	> 100 µM	–	–	> 100 µM	> 100 µM	> 55.2 µM	> 70.9 µM	–	–	–
CSc1ccc(Nc2cc(=O)[nH]c(=O)[nH]2)cc1	> 100 µM	–	> 100 µM	–	–	> 100 µM	> 100 µM	> 100 µM	–	> 100 µM	> 100 µM	> 100 µM	> 100 µM	–	–	–
C=C1C(=O)O[C@H]2C1C[C@@H](OC(C)=O)/C(C)=C/CC[C@@]1(C)O[C@H]21 (stereo partly drawn)	15.2 µM	35.2 µM	27.9 µM	34.5 µM	21.2 µM	–	9.7 µM	37.2 µM	20.2 µM	57.9 µM	64 µM	> 100 µM	–	–	–	–
C/C(=N\NC(=O)c1ccccc1O)c1cccc(/C(C)=N/NC(=O)c2ccccc2O)n1.O=S(=O)([O-])[O-].[Fe+2]	> 100 µM	> 100 µM	> 100 µM	> 100 µM	> 100 µM	–	> 100 µM	> 100 µM	> 100 µM	> 100 µM	> 100 µM	> 100 µM	–	47.7 µM	> 100 µM	59.1 µM
Cc1c(N=C/C=C/c2ccccc2)c(=O)n(-c2ccccc2)n1C	> 100 µM	81.8 µM	–	95.8 µM	> 100 µM	> 100 µM	83.8 µM	69.8 µM	> 100 µM	> 100 µM	> 100 µM	73.3 µM	87.2 µM	–	–	–
CC(C)C1NC(=O)CC(c2ccccc2)N(N=O)C1c1ccccc1 (stereo not drawn)	–	> 100 µM	> 100 µM	> 100 µM	> 100 µM	–	> 100 µM	> 100 µM	> 100 µM	> 100 µM	> 100 µM	> 100 µM	> 100 µM	–	–	–
CC(=O)NC(NCCN)(c1ccccc1)c1ccccc1	> 100 µM	> 100 µM	> 100 µM	> 100 µM	–	> 100 µM	> 100 µM	> 100 µM	> 100 µM	–	> 100 µM	> 100 µM	> 100 µM	–	–	–
O=C1Nc2nccnc2C(=O)N2CCC[C@@H]12	> 100 µM	> 100 µM	> 100 µM	> 100 µM	> 100 µM	> 100 µM	> 100 µM	> 100 µM	> 100 µM	> 100 µM	> 100 µM	> 100 µM	–	–	–	–
CSCSCC(CO)NC(=O)/C(C)=C\c1c(C)[nH]c(=O)[nH]c1=O (stereo not drawn)	–	> 250 µM	> 250 µM	> 250 µM	> 250 µM	–	> 250 µM	> 250 µM	> 250 µM	> 250 µM	> 250 µM	> 250 µM	> 250 µM	–	–	–
O=C(N/N=C/c1cc(Br)cc(Br)c1[O-])c1ccccc1O.O=C(N/N=C/c1cc(Br)cc(Br)c1[O-])c1ccccc1O.[Zn+2]	15 µM	10.9 µM	3.42 µM	4.5 µM	5.55 µM	–	> 100 µM	3.17 µM	11.9 µM	12 µM	8.49 µM	2.01 µM	–	–	–	–
Cn1c2ccccc2c(=O)c2c(O)cc3c(c21)C=CC(C)(C)O3	–	> 25 µM	> 25 µM	> 25 µM	> 25 µM	–	–	> 25 µM	> 25 µM	> 25 µM	> 25 µM	> 25 µM	> 25 µM	–	–	–
O=C(c1ccccc1)N1CCC(CC2(c3cc4ccccc4[nH]3)OCCO2)CC1	> 100 µM	> 100 µM	–	> 100 µM	> 100 µM	> 100 µM	58.1 µM	> 100 µM	> 100 µM	73.6 µM	> 100 µM	> 100 µM	62.8 µM	–	–	–
CCOC(=O)c1c(NC(=S)Nc2ccc(Cl)cc2)sc2c1CCN(C)C2	> 100 µM	> 100 µM	–	> 100 µM	> 100 µM	> 100 µM	> 100 µM	> 100 µM	> 100 µM	> 100 µM	–	–	> 100 µM	–	–	–
COc1nc(N)c(NC(C)=O)c(=O)n1C	> 100 µM	> 100 µM	> 100 µM	–	> 100 µM	–	> 100 µM	> 100 µM	> 100 µM	> 100 µM	–	> 100 µM	> 100 µM	–	–	–
CCOC(=O)NC(Nc1ccc(F)cc1)(C(=O)OCC)C(F)(F)F (stereo not drawn)	> 100 µM	> 100 µM	> 100 µM	> 100 µM	> 100 µM	> 100 µM	> 100 µM	> 100 µM	> 100 µM	–	> 100 µM	> 100 µM	> 100 µM	–	–	–
O=[N+]([O-])c1ccc(-n2nc3ccc4c(no[n+]4[O-])c3n2)cc1	> 100 µM	> 100 µM	> 100 µM	> 100 µM	> 100 µM	> 100 µM	> 100 µM	> 100 µM	–	> 100 µM	> 100 µM	> 100 µM	–	–	–	–
OC(CN(CCCl)CCCl)C(O)C(O)C(O)CN(CCCl)CCCl (stereo not drawn)	17.3 µM	> 100 µM	> 100 µM	> 100 µM	> 100 µM	> 100 µM	–	> 100 µM	> 100 µM	> 100 µM	> 100 µM	> 100 µM	> 100 µM	–	–	–
Nc1ncnc2c1ncn2C1CCC(CP(=O)(O)O)C1 (stereo not drawn)	> 100 µM	> 100 µM	> 100 µM	> 100 µM	> 100 µM	> 100 µM	–	> 100 µM	> 100 µM	> 100 µM	> 100 µM	> 100 µM	–	–	–	–
